Test results reported in ChEMBL document CHEMBL3045406, “Enantioselective Relieving Activity of α-Methylbenzylphenylureas toward Bensulfuron-methyl Injury to Rice (Oryza sativa)” (Biosci Biotechnol Biochem, 1999).

How the values were obtained:
Oryza sativa [1] = assay: Safener indices, ratio of compound effect of Oryza sativa (rice) growth rate to relieving activity against bensulfuron-methyl induced injury to Oryza sativa growth rate at 1 uM
[2] = Hydrophobicity, log K of the compound; assay type: physicochemical; conditions: octanol/water
Oryza sativa [3] = assay: Relieving activity against bensulfuron-methyl induced injury to Oryza sativa (rice) assessed as growth rate at 0.1 uM (Rbv = 46 to 53%); assay type: functional
Oryza sativa [4] = assay: Effect on Oryza sativa (rice) assessed as growth rate at 1 uM relative to control; assay type: organism-based; conditions: in vivo
Oryza sativa [5] = assay: Effect on Oryza sativa (rice) assessed as growth rate at 0.1 uM relative to control; assay type: organism-based; conditions: in vivo
Oryza sativa [6] = assay: Effect on Oryza sativa (rice) assessed as growth rate at 10 uM relative to control; assay type: organism-based; conditions: in vivo
Oryza sativa [7] = assay: Safener indices, ratio of compound effect of Oryza sativa (rice) growth rate to relieving activity against bensulfuron-methyl induced injury to Oryza sativa growth rate at 0.1 uM
Oryza sativa [8] = assay: Safener indices, ratio of compound effect of Oryza sativa (rice) growth rate to relieving activity against bensulfuron-methyl induced injury to Oryza sativa growth rate at 10 uM
Oryza sativa [9] = assay: Relieving activity against bensulfuron-methyl induced injury to Oryza sativa (rice) assessed as growth rate at 10 uM (Rbv = 46 to 53%); assay type: functional
Oryza sativa [10] = assay: Relieving activity against bensulfuron-methyl induced injury to Oryza sativa (rice) assessed as growth rate at 1 uM (Rbv = 46 to 53%); assay type: functional

Row | SMILES | log K [2] | Activity (Oryza sativa [4]) | Activity (Oryza sativa [5]) | Activity (Oryza sativa [6]) | Ratio (Oryza sativa [1]) | Activity (Oryza sativa [3]) | Ratio (Oryza sativa [7]) | Ratio (Oryza sativa [8]) | Activity (Oryza sativa [9]) | Activity (Oryza sativa [10])
1 | CCc1cccc(CC)c1NC(=O)N[C@@H](C)c1ccccc1 | 0.523 | 93% | 101% | 83% | 6 | 52% | 1 | 6 | 46% | 50%
2 | C[C@@H](NC(=O)Nc1cccc(I)c1)c1ccccc1 | 0.568 | 75% | 81% | 73% | 44 | 57% | 26 | 53 | 71% | 66%
3 | C[C@@H](NC(=O)Nc1cccc(C(F)(F)F)c1)c1ccccc1 | 0.542 | 72% | 82% | 70% | 41 | 57% | 26 | 50 | 68% | 63%
4 | CCc1cccc(NC(=O)N[C@@H](C)c2ccccc2)c1 | 0.489 | 94% | 100% | 86% | 48 | 58% | 15 | 68 | 82% | 72%
5 | C[C@H](NC(=O)Nc1cccc(I)c1)c1ccccc1 | 0.568 | 95% | 98% | 93% | 66 | 72% | 43 | 80 | 90% | 83%
6 | C[C@@H](NC(=O)Nc1ccc(F)c(F)c1)c1ccccc1 | 0.398 | 99% | 99% | 96% | 21 | 52% | 4 | 47 | 73% | 60%
7 | C[C@H](NC(=O)Nc1c(Cl)cccc1Cl)c1ccccc1 | 0.326 | 99% | 100% | 99% | 36 | 62% | 21 | 47 | 74% | 69%
8 | C[C@@H](NC(=O)Nc1c(F)cccc1F)c1ccccc1 | 0.238 | 100% | 100% | 98% | 8 | 51% | 2 | 42 | 71% | 54%
9 | C[C@H](NC(=O)Nc1c(F)cccc1F)c1ccccc1 | 0.238 | 99% | 100% | 99% | 22 | 53% | 6 | 62 | 81% | 61%

More lines, main results first:

Row | log K [2] | Activity (Oryza sativa [4]) | Activity (Oryza sativa [5]) | Activity (Oryza sativa [6]) | SMILES | Ratio (Oryza sativa [1]) | Activity (Oryza sativa [3]) | Ratio (Oryza sativa [7]) | Ratio (Oryza sativa [8]) | Activity (Oryza sativa [9]) | Activity (Oryza sativa [10])
10 | 0.367 | 92% | 98% | 65% | C[C@H](NC(=O)Nc1ccccc1F)c1ccccc1 | 65 | 73% | 47 | 68 | 78% | 81%
11 | 0.374 | 98% | 100% | 47% | Cc1cccc(NC(=O)N[C@H](C)c2ccccc2)c1 | 22 | 55% | 10 | 29 | 45% | 60%
12 | 0.337 | 100% | 100% | 99% | Cc1ccccc1NC(=O)N[C@H](C)c1ccccc1 | 12 | 52% | 6 | 42 | 71% | 55%
13 | 0.422 | 100% | 100% | 95% | CCc1ccccc1NC(=O)N[C@@H](C)c1ccccc1 | 12 | 51% | 1 | 44 | 71% | 57%
14 | 0.435 | 100% | 100% | 100% | C[C@H](NC(=O)Nc1cccc(F)c1F)c1ccccc1 | 75 | 68% | 36 | 87 | 93% | 88%
15 | 0.343 | 105% | 100% | 96% | COc1ccccc1NC(=O)N[C@H](C)c1ccccc1 | -4 | 54% | -1 | 42 | 72% | 55%
16 | 0.211 | 99% | 104% | 95% | COc1ccc(NC(=O)N[C@@H](C)c2ccccc2)cc1 | 57 | 59% | 6 | 81 | 91% | 81%
17 | 0.512 | 100% | 100% | 99% | C[C@@H](NC(=O)Nc1cccc(Br)c1)c1ccccc1 | 59 | 66% | 31 | 85 | 92% | 80%
18 | 0.356 | 98% | 99% | 96% | Cc1cc(F)ccc1NC(=O)N[C@@H](C)c1ccccc1 | 40 | 56% | 9 | 62 | 81% | 71%
19 | 0.504 | 100% | 99% | 94% | C[C@@H](NC(=O)Nc1ccccc1Br)c1ccccc1 | 20 | 53% | 6 | 61 | 79% | 60%
20 | 0.487 | 101% | 103% | 17% | CC(C)c1ccccc1NC(=O)N[C@H](C)c1ccccc1 | 3 | 43% | -9 | 24 | 30% | 48%
21 | 0.535 | 99% | 101% | 100% | C[C@H](NC(=O)Nc1ccccc1C(C)(C)C)c1ccccc1 | 14 | 52% | 3 | 31 | 66% | 57%
22 | 0.464 | 98% | 100% | 99% | C[C@H](NC(=O)Nc1cc(F)ccc1F)c1ccccc1 | 77 | 74% | 47 | 92 | 96% | 89%
